According to PubChem BioAssay AID248 (DTP/NCI, 2004):
“And” between values parts separate entries of the source, which are not always exact repeats. Identical values can stand only once. Inconclusive results and toxic doses are left out. No stated cut-off is given here; in the data, active means T/C of 150% or more; inactive means T/C below 125%.

Tested on: L1210 leukemia ip in BDF1 mice, survival T/C
Test: NCI In Vivo Anticancer Drug Screen. Data for tumor model L1210 Leukemia (intraperitoneal) in B6D2F1 (BDF1) mice
Details: endpoint: mean survival time, higher = longer survival
How it was run: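 Tumor was transplanted into mice, which were then dosed with test compound or vehicle alone. Survival was recorded for each group, and the treated figure was expressed relative to the control figure.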

[1] = dose: 100.0 mg/kg/injection, schedule: Q01DX001 (ip), vehicle: saline
[2] = dose: 200.0 mg/kg/injection, schedule: Q01DX001 (ip), vehicle: saline
[3] = dose: 400.0 mg/kg/injection, schedule: Q01DX001 (ip), vehicle: saline
[4] = dose: 25.0 mg/kg/injection, schedule: Q01DX009 (ip), vehicle: saline with Tween-80
[5] = dose: 50.0 mg/kg/injection, schedule: Q01DX009 (ip), vehicle: saline with Tween-80
[6] = dose: 50.0 mg/kg/injection, schedule: Q04DX003 (ip), vehicle: saline with Tween-80
[7] = dose: 100.0 mg/kg/injection, schedule: Q01DX009 (ip), vehicle: saline with Tween-80
[8] = dose: 100.0 mg/kg/injection, schedule: Q04DX003 (ip), vehicle: saline with Tween-80
[9] = dose: 200.0 mg/kg/injection, schedule: Q04DX003 (ip), vehicle: saline with Tween-80
[10] = dose: 400.0 mg/kg/injection, schedule: Q04DX002 (ip), vehicle: saline with Tween-80
[11] = dose: 25.0 mg/kg/injection, schedule: Q04DX003 (ip), vehicle: saline with Tween-80
[12] = dose: 100.0 mg/kg/injection, schedule: Q04DX002 (ip), vehicle: Klucel (hydroxypropylcellulose) (HPC)
[13] = dose: 200.0 mg/kg/injection, schedule: Q04DX002 (ip), vehicle: Klucel (hydroxypropylcellulose) (HPC)
[14] = dose: 400.0 mg/kg/injection, schedule: Q04DX002 (ip), vehicle: Klucel (hydroxypropylcellulose) (HPC)
[15] = dose: 12.5 mg/kg/injection, schedule: Q01DX009 (ip), vehicle: saline with Tween-80

Measured: T/C

CC(CCOC(=O)c1ccccc1)OC(=O)c1ccccc1 (stereo not drawn)
inactive: [1] 92 % of control | [2] 121 % of control | [3] 105 % of control

C=CCN(CC=C)c1nc(OC)nc(OC)n1
inactive: [4] 92 % of control | dose: 25.6 mg/kg/injection, schedule: Q04DX002 (ip), vehicle: saline with Tween-80 97 % of control | [5] 94 % of control | [6] 95 % of control | dose: 64.0 mg/kg/injection, schedule: Q04DX002 (ip), vehicle: saline with Tween-80 101 % of control | [7] 94 % of control | [8] 95 % of control and 103 % of control | dose: 160.0 mg/kg/injection, schedule: Q04DX002 (ip), vehicle: saline with Tween-80 101 % of control | [9] 92 % of control | [10] 101 % of control

CCN(CC)CCCC(C)Nc1ccnc(/C=C/c2ccc(Cl)cc2)c1 (stereo not drawn)
inactive: dose: 12.0 mg/kg/injection, schedule: Q01DX009 (ip), vehicle: Klucel (hydroxypropylcellulose) (HPC) 92 % of control | dose: 12.5 mg/kg/injection, schedule: Q04DX003 (ip), vehicle: Klucel (hydroxypropylcellulose) (HPC) 97 % of control | dose: 25.0 mg/kg/injection, schedule: Q01DX009 (ip), vehicle: Klucel (hydroxypropylcellulose) (HPC) 100 % of control | dose: 25.0 mg/kg/injection, schedule: Q01DX009 (ip), vehicle: saline 101 % of control | dose: 25.0 mg/kg/injection, schedule: Q04DX003 (ip), vehicle: Klucel (hydroxypropylcellulose) (HPC) 103 % of control | dose: 50.0 mg/kg/injection, schedule: Q01DX009 (ip), vehicle: Klucel (hydroxypropylcellulose) (HPC) 95 % of control | dose: 50.0 mg/kg/injection, schedule: Q01DX009 (ip), vehicle: saline 95 % of control | dose: 50.0 mg/kg/injection, schedule: Q04DX003 (ip), vehicle: Klucel (hydroxypropylcellulose) (HPC) 97 % of control | dose: 75.0 mg/kg/injection, schedule: Q04DX003 (ip), vehicle: saline 105 % of control | dose: 100.0 mg/kg/injection, schedule: Q04DX003 (ip), vehicle: Klucel (hydroxypropylcellulose) (HPC) 96 % of control | dose: 300.0 mg/kg/injection, schedule: Q04DX003 (ip), vehicle: saline 93 % of control

CN(C)C(=S)SCSC(=S)N(C)C
inactive: [11] 100 % of control | [6] 91 % of control | [12] 97 % of control | [8] 91 % of control | [13] 93 % of control | [14] 93 % of control

O=C1C2CCCCC2C(=O)N1O (stereo not drawn)
inactive: [1] 94 % of control | dose: 100.0 mg/kg/injection, schedule: Q04DX003 (ip), vehicle: saline 102 % of control | [2] 92 % of control | dose: 200.0 mg/kg/injection, schedule: Q04DX003 (ip), vehicle: saline 96 % of control | [3] 94 % of control | dose: 400.0 mg/kg/injection, schedule: Q04DX003 (ip), vehicle: saline 103 % of control

CCC(CN)(c1ccccc1)c1ccccc1
inactive: dose: 50.0 mg/kg/injection, schedule: Q01DX001 (ip), vehicle: other 96 % of control | dose: 100.0 mg/kg/injection, schedule: Q01DX001 (ip), vehicle: other 104 % of control | dose: 200.0 mg/kg/injection, schedule: Q01DX001 (ip), vehicle: other 102 % of control | dose: 400.0 mg/kg/injection, schedule: Q01DX001 (ip), vehicle: other 96 % of control

Cc1cn(CCCCOC(=O)c2ccc([N+](=O)[O-])cc2)c(=O)[nH]c1=O
inactive: dose: 100.0 mg/kg/injection, schedule: Q01DX001 (ip), vehicle: Klucel (hydroxypropylcellulose) (HPC) 95 % of control | dose: 200.0 mg/kg/injection, schedule: Q01DX001 (ip), vehicle: Klucel (hydroxypropylcellulose) (HPC) 100 % of control | dose: 400.0 mg/kg/injection, schedule: Q01DX001 (ip), vehicle: Klucel (hydroxypropylcellulose) (HPC) 87 % of control

FC1(F)SC2c3ccccc3CC2C1(F)F (stereo not drawn)
inactive: dose: 100.0 mg/kg/injection, schedule: Q01DX009 (ip), vehicle: Klucel (hydroxypropylcellulose) (HPC) 97 % of control | dose: 200.0 mg/kg/injection, schedule: Q01DX009 (ip), vehicle: Klucel (hydroxypropylcellulose) (HPC) 101 % of control | dose: 400.0 mg/kg/injection, schedule: Q01DX009 (ip), vehicle: Klucel (hydroxypropylcellulose) (HPC) 95 % of control

CS(=O)(=O)ON1C(=O)c2ccccc2C1=O
inactive: dose: 6.25 mg/kg/injection, schedule: Q01DX009 (ip), vehicle: saline with Tween-80 94 % of control | [15] 98 % of control | [4] 94 % of control | dose: 25.0 mg/kg/injection, schedule: Q04DX003 (ip), vehicle: saline 91 % of control | dose: 50.0 mg/kg/injection, schedule: Q04DX003 (ip), vehicle: saline 93 % of control

C=C(C)c1ccc(C)c(C)c1
inactive: [11] 100 % of control | [6] 106 % of control | [8] 94 % of control | [9] 95 % of control | dose: 400.0 mg/kg/injection, schedule: Q04DX003 (ip), vehicle: saline with Tween-80 90 % of control

O=C(O)COc1ccc(Cl)cc1CC(=O)O
inactive: dose: 50.0 mg/kg/injection, schedule: Q04DX002 (ip), vehicle: saline with Tween-80 99 % of control | dose: 100.0 mg/kg/injection, schedule: Q04DX002 (ip), vehicle: saline with Tween-80 100 % of control and 105 % of control | dose: 200.0 mg/kg/injection, schedule: Q04DX002 (ip), vehicle: saline with Tween-80 99 % of control and 103 % of control | [10] 103 % of control

CNC(=O)Oc1ccc(C=Nc2cccc(Cl)c2)cc1
inactive: [12] 98 % of control | [13] 98 % of control | [14] 98 % of control

Cc1ccc(C(=O)CCc2ccccc2)cc1
inactive: dose: 100.0 mg/kg/injection, schedule: Q04DX003 (ip), vehicle: other 92 % of control | dose: 200.0 mg/kg/injection, schedule: Q04DX003 (ip), vehicle: other 91 % of control | dose: 400.0 mg/kg/injection, schedule: Q04DX003 (ip), vehicle: other 94 % of control

CCCCCN(CCCCC)CCCNc1c2c(nc3ccc(Cl)cc13)CCCC2
inactive: dose: 50.0 mg/kg/injection, schedule: Q01DX001 (ip), vehicle: saline 96 % of control

COc1cccc(-c2nc3ccccc3s2)c1OC
inactive: dose: 25.0 mg/kg/injection, schedule: Q04DX003 (ip), vehicle: DMSO 88 % of control | dose: 50.0 mg/kg/injection, schedule: Q04DX003 (ip), vehicle: DMSO 95 % of control | dose: 100.0 mg/kg/injection, schedule: Q04DX003 (ip), vehicle: DMSO 92 % of control and 96 % of control

O=C1NC2C(NC(=O)N2Cl)N1Cl (stereo not drawn)
inactive: [15] 97 % of control | [4] 100 % of control | [11] 94 % of control | dose: 40.0 mg/kg/injection, schedule: Q01DX Z (ip), vehicle: carboxymethylcellulose (CMC) 92 % of control | [5] 94 % of control | [6] 95 % of control | [7] 94 % of control | [8] 105 % of control
